Measured values: patent US20100267954A1, “PROCESS FOR THE PURIFICATION OF PALIPERIDONE” (DIPHARMA FRANCIS S.r.l., priority 2009, published 2010)
Counter-ions that a name gives are not always drawn.

Legend:
[1] = solubility in water (descriptive statement); format: physicochemical; conditions: crystalline solid
[2] = compared with Form II, hydrate form and solvate form; per EMEA document; cited from earlier work

solubility in water [1]	SMILES	thermodynamic stability among crystalline forms [2]
poorly soluble in water	Cc1nc2n(c(=O)c1CCN1CCC(c3noc4cc(F)ccc34)CC1)CCCC2O (racemic) [paliperidone Form I, (±)-3-[2-[4-(6-fluoro-1,2-benzoisoxazol-3-yl)-1-piperidinyl]ethyl-6,7,8,9-tetrahydro-9-hydroxy-2-methylpropanediol-4H-pyrido[1,2-a]pyrimidin-4-one]	most thermodynamically stable
poorly soluble in water	Cc1nc2n(c(=O)c1CCN1CCC(c3noc4cc(F)ccc34)CC1)CCCC2O (stereo not drawn) [paliperidone hydrochloride, 3-[2-[4-(6-fluoro-1,2-benzoisoxazol-3-yl)-1-piperidinyl]ethyl-6,7,8,9-tetrahydro-9-hydroxy-2-methyl-4H-pyrido[1,2-a]-pyrimidin-4-one hydrochloride]	–
